Assay results: US12398121B2 (Nuvation Bio Inc., priority 2018, dated 2025)

Experiments:
Format in all cases: cell-based
Human AR = molecular target: T1, Human AR (Homo sapiens, UniProt P10275); assay: AR transactivation (antagonist mode, GRE-LUC luciferase in HEK-293 cells); settings: in combination with 0.1 nM R1881, read-out: AR Ant. IC50
T1 construct: expressed in transfected cells; host or cells: HEK-293
T1 sequence (P10275 1-920): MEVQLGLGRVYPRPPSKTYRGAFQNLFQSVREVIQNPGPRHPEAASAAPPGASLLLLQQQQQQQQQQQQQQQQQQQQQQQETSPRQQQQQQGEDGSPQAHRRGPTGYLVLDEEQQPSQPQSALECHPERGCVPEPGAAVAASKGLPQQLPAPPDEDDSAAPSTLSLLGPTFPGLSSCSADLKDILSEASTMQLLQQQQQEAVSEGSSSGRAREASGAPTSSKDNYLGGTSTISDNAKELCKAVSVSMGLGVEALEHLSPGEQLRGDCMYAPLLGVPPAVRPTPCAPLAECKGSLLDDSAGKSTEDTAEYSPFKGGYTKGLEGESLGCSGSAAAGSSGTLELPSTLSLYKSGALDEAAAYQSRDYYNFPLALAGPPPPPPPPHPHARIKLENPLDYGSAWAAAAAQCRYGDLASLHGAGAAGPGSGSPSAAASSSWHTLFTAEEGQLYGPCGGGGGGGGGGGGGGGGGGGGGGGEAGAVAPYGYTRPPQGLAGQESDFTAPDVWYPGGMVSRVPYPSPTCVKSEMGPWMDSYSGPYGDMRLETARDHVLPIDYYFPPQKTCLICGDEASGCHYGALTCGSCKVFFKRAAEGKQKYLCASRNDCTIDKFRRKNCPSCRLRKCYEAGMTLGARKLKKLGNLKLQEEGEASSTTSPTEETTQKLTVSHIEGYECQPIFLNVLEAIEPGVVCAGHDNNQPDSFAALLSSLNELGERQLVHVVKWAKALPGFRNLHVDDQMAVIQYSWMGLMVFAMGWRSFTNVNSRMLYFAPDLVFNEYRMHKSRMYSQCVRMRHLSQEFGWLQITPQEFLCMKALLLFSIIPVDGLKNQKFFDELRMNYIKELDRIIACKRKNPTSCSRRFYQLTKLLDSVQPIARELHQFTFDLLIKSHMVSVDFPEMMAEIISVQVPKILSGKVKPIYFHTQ
Experimental: (§1) IC50 values were calculated and graphed using the model “log(inhibitor) vs. response—Variable slope” included in GraphPad Prism 5 (San Diego, CA). The Ki values were further calculated using the equation below where [L] was the radioligand concentration (1 nM) using in this study. Kd value was 0.332 nM. Ki=IC50/(1+[L]/Kd) c. AR transactivation: Human AR cloned into a CMV vector backbone was used for the transactivation study. HEK-293 cells were plated at 80,000 cells per well of a 24 well plate in DME+5% csFBS. Twenty four hours later, the cells were transfected using Lipofectamine (Invitrogen, Carlsbad, CA) with 0.25 μg GRE-LUC, 0.01 μg CMV-LUC (renilla luciferase) and 25 ng of the AR in OPTIMEM medium. The cells were treated 24 hrs after transfection with various ligands (10^−12 to 10^−5 M final concentrations) and luciferase assay were performed 48 hours after transfection. Firefly values were normalized to renilla luciferase values and the values were represented as relative light units (RLU). Agonist and antagonist assays for the test article were performed in the absence and in the combination with 0.1 nM R1881, respectively. Data were represented as EC50 (for agonists) and IC50 (for antagonists) obtained from four parameter logistics curve. Cell culture and proliferation assays: LNCaP, PC-3, 22RV1, MCF-7, HT-29, and HCT-116 cells were procured from American Type Culture Collection (ATCC). Cells were cultured in medium recommended by the ATCC. Cell culture medium was obtained from Fisher scientific (Waltham, MA) and serum was obtained from Hyclone (San Angelo, TX).

HCT-116 cells = assay: Cell proliferation assay (CellTiter Glo), HCT-116; settings: Homo sapiens, HCT-116, 168 h, read-out: HCT-116 IC50
Experimental: as §1
(§2) Cells were plated at varying density in the respective growth medium in 96 well plates. 24 hr later, cells were treated, in triplicate or quadruplicate, with test articles prepared in a range of concentrations by series dilution of DMSO stock solutions in growth medium and incubated for three to seven days. The number of viable 22RV1 and HT-29 cells was measured using CellTiter Glo assay (CTG, Promega, Madison, WI) after three days of treatment. The other types of cancer cells were re-treated at three or four days and the number of viable cells was measured using CTG assay after a total treatment time of six or seven days. Cell viability data were plotted using GraphPad Prism (GraphPad Software, Inc., San Diego, CA). In addition, a nonlinear regression model with a sigmoidal dose response and variable slope within GraphPad Prism was used to calculate the IC50 value of individual test articles. Additional cell proliferation assays: Other cancer cell lines are tested in a cell proliferation assay. For example, SK-OV-3 or OVCAR3 ovarian cancer cells are tested. […] The number of viable cells is measured using CellTiter Glo assay (CTG, Promega, Madison, WI) or similar. […]

PC-3 cells = assay: Cell proliferation assay (CellTiter Glo), PC-3; settings: Homo sapiens, PC-3, 168 h, read-out: PC-3 IC50
Experimental: as §1, §2

LNCaP cells = assay: Cell proliferation assay (CellTiter Glo), LNCaP; settings: Homo sapiens, 168 h, read-out: LNCaP IC50
Experimental: as §1
Cells were plated at varying density in the respective growth medium in 96 well plates. 24 hr later, cells were treated, in triplicate or quadruplicate, with test articles prepared in a range of concentrations by series dilution of DMSO stock solutions in growth medium and incubated for three to seven days. The number of viable 22RV1 and HT-29 cells was measured using CellTiter Glo assay (CTG, Promega, Madison, WI) after three days of treatment. The other types of cancer cells were re-treated at three or four days and the number of viable cells was measured using CTG assay after a total treatment time of six or seven days. Cell viability data were plotted using GraphPad Prism (GraphPad Software, Inc., San Diego, CA). In addition, a nonlinear regression model with a sigmoidal dose response and variable slope within GraphPad Prism was used to calculate the IC50 value of individual test articles. Additional cell proliferation assays: Other cancer cell lines are tested in a cell proliferation assay. For example, SK-OV-3 or OVCAR3 ovarian cancer cells are tested. Cells are cultured in medium recommended by the supplier (e.g., ATCC or JCRB Cell Bank), at 37° C. in a 5% CO2 environment. For the proliferation assay, cells are plated in the growth medium in 96 well plates. Seeding density is adjusted according to the cell type. 24 hr later, cells are treated, in triplicate or quadruplicate, with test articles prepared in a range of concentrations by series dilution of DMSO stock solutions in growth medium, and typically incubated for three to seven days, with test article-containing medium replaced after three or four days. The number of viable cells is measured using CellTiter Glo assay (CTG, Promega, Madison, WI) or similar. Cell viability data are plotted using GraphPad Prism (GraphPad Software, Inc., San Diego, CA). […]

SMILES	IC50 (Human AR)	IC50 (HCT-116 cells)	IC50 (PC-3 cells)	IC50 (LNCaP cells)
CC1(C)C(=O)N(c2ccc(C#N)c(C(F)(F)F)c2)C(=S)N1c1ccc(C(=O)NCCCCCC(=O)N2CCN(C(=O)c3cc(Cc4n[nH]c(=O)c5ccccc45)ccc3F)CC2)c(F)c1 [Compound 1.1, 4-(3-(4-cyano-3-(trifluoromethyl)phenyl)-5,5-dimethyl-4-oxo-2-thioxoimidazolidin-1-yl)-2-fluoro-N-(6-(4-(2-fluoro-5-((4-oxo-3,4-dihydrophthalazin-1-yl)methyl)benzoyl)piperazin-1-yl)-6-oxohexyl)benzamide]	33 nM	310 nM	50 nM	590 nM
C[C@]12CCC(=O)C[C@@H]1CC[C@@H]1[C@@H]2CC[C@]2(C)[C@@H](OCCCCCC(=O)N3CCN(C(=O)c4cc(Cc5n[nH]c(=O)c6ccccc56)ccc4F)CC3)CC[C@@H]12 [Compound 1.2, 4-(3-(4-(6-(((5S,8R,9S,10S,13S,14S,17S)-10,13-dimethyl-3-oxohexadecahydro-1H-cyclopenta[a]phenanthren-17-yl)oxy)hexanoyl)piperazine-1-carbonyl)-4-fluorobenzyl)phthalazin-1(2H)-one]		110 nM	240 nM	790 nM
CC1(C)C(=O)N(c2ccc(C#N)c(C(F)(F)F)c2)C(=S)N1c1ccc(C(=O)NCCCCCCNCc2ccc(-c3[nH]c4cc(F)cc5c4c3CCNC5=O)cc2)c(F)c1 [Compound 1.5, 4-(3-(4-cyano-3-(trifluoromethyl)phenyl)-5,5-dimethyl-4-oxo-2-thioxoimidazolidin-1-yl)-2-fluoro-N-(6-((4-(8-fluoro-1-oxo-2,3,4,6-tetrahydro-1H-azepino[5,4,3-cd]indol-5-yl)benzyl)amino)hexyl)benzamide]	750 nM			
C[C@](O)(CS(=O)(=O)c1ccc(NCCCCCC(=O)N2CCN(C(=O)c3cc(Cc4n[nH]c(=O)c5ccccc45)ccc3F)CC2)cc1)C(=O)Nc1ccc(C#N)c(C(F)(F)F)c1 [Compound 1.68, (R)-N-(4-cyano-3-(trifluoromethyl)phenyl)-3-(4-(6-(4-(2-fluoro-5-((4-oxo-3,4-dihydrophthalazin-1-yl)methyl)benzoyl)piperazin-1-yl)-6-oxohexylamino)phenylsulfonyl)-2-hydroxy-2-methylpropanamide]	3300 nM			
